Source: paper PMC12040169 (PLOS Biology, 2025)

Experiment: in vitro
Conditions: human, hela cells, % viability

Structure (SMILES) | viability at 28.5 h, 10 µM [%]
Nc1c(-c2cccc(C(F)(F)F)c2)cnc2ncccc12 [CBK083710] | 105
CC(C)C(=O)Nc1c(-c2ccccc2)cnc2ncccc12 [CBK083713] | 94.8
CC(C)C(=O)Nc1ccc(-c2ccccc2)c2ccccc12 [CBK083731] | 101
CS(=O)(=O)Nc1ccc(-c2ccccc2)c2ccccc12 [CBK083741] | 93.2
CS(=O)(=O)Nc1ccc(-c2ccsc2)c2ccccc12 [CBK083742] | 98.7
CS(=O)(=O)Nc1ccc(-c2cc(F)cc(F)c2)c2ccccc12 [CBK083743] | 89.8
COc1cc(F)ccc1-c1ccc(NS(C)(=O)=O)c2ccccc12 [CBK083744] | 97.9
COc1ccc(C(C)C)cc1-c1ccc(NS(C)(=O)=O)c2ccccc12 [CBK083747] | 97.8
CS(=O)(=O)Nc1ccc(-c2ccc3c(c2)CCO3)c2ccccc12 [CBK083753] | 76.5
CC(C)C(=O)Nc1ccc(-c2ccsc2)c2ccccc12 [CBK083758] | 92.7
COc1ccc(CN2CCCN(c3ccnc(OCCN4CCOCC4)n3)CC2)cc1 [CBK083800] | 99.2
CCN1CCCN(c2ccnc(OCCN3CCOCC3)n2)CC1 [CBK083807] | 114
OCCCN1CCCN(c2ccnc(OCCN3CCOCC3)n2)CC1 [CBK083808] | 104
c1ccc(CCN2CCCN(c3ccnc(OCCN4CCOCC4)n3)CC2)cc1 [CBK083810] | 89.3
CCOC(=O)CN1CCCN(c2ccnc(OC3CCCCC3)n2)CC1 [CBK083864] | 90.9
c1ccc(OCCN2CCCN(c3nccc(OCCN4CCOCC4)n3)CC2)cc1 [CBK083940] | 110
FC(F)(F)c1ccc(CN2CCCN(c3nccc(OCc4ccc(Cl)c(Cl)c4)n3)CC2)cc1 [CBK083949] | 94.5
COc1ccc(CCN2CCCN(c3nccc(OCc4ccc(Cl)c(Cl)c4)n3)CC2)cc1OC [CBK083965] | 96.4
Clc1ccc(CN2CCCN(c3nccc(OCC4COc5ccccc5O4)n3)CC2)cc1Cl (stereo not drawn) [CBK083967] | 97.3
c1cncc(CN2CCCN(c3nccc(OCC4COc5ccccc5O4)n3)CC2)c1 (stereo not drawn) [CBK083969] | 112
Cc1cccc(C)c1NC(=O)CN1CCCN(c2nccc(OCC3COc4ccccc4O3)n2)CC1 (stereo not drawn) [CBK083974] | 102
CCOC(=O)CN1CCCN(c2nccc(OCC3COc4ccccc4O3)n2)CC1 (stereo not drawn) [CBK083975] | 100
N#CCCCN1CCCN(c2nccc(OCC3COc4ccccc4O3)n2)CC1 (stereo not drawn) [CBK083977] | 90.2

Structure (SMILES) | viability at 28.5 h, 10 µM [%]
c1ccc2c(c1)OCC(COc1ccnc(N3CCCN(CCc4ccc5ccccc5c4)CC3)n1)O2 (stereo not drawn) [CBK083983] | 90.7
COc1ccnc(N2CCCN(CC(N)=O)CC2)n1 [CBK083992] | 87.2
CS(=O)(=O)N1CC2(CCN(Cc3ccccc3F)CC2)c2ccccc21 [CBK084004] | 103
CS(=O)(=O)N1CC2(CCN(Cc3ccc([N+](=O)[O-])cc3)CC2)c2ccccc21 [CBK084010] | 104
CS(=O)(=O)N1CC2(CCN(CCc3c[nH]c4ccccc34)CC2)c2ccccc21 [CBK084017T] | 97.9
CS(=O)(=O)N1CC2(CCN(CC3CCCCC3)CC2)c2ccccc21 [CBK084018] | 96.8
Clc1ccc(CN2CCCN(c3nccc(OCC4COc5ccccc5O4)n3)CC2)cc1 (stereo not drawn) [CBK084038] | 84.9
CS(=O)(=O)N1CC2(CCN(Cc3ccc(Cl)c(Cl)c3)CC2)c2ccccc21 [CBK084043] | 102
Clc1ccc(COc2cc(N3CCCN(CC4CC4)CC3)ncn2)cc1Cl [CBK084070] | 90.8
Cc1cc(COc2ccnc(N3CCCN(CC4CC4)CC3)n2)no1 [CBK084073] | 91.1
c1cncc(COc2ccnc(N3CCCN(Cc4ccc5c(c4)OCO5)CC3)n2)c1 [CBK084112] | 92.5
COc1ccnc(N2CCCN(CCN3CCOCC3)CC2)n1 [CBK084120] | 119
c1cncc(COc2ccnc(N3CCCN(CCN4CCOCC4)CC3)n2)c1 [CBK084122] | 88.5
Cc1cc(COc2ccnc(N3CCCN(CCCC#N)CC3)n2)no1 [CBK084144] | 96.8
COc1ccc(Oc2nccc(N3CCCN(CCc4ccc5ccccc5c4)CC3)n2)cc1OC [CBK084164] | 87
Cc1cc(COc2nccnc2N2CCN(CC(N)=O)CC2)no1 [CBK084192] | 91
Cc1cc(COc2nccnc2N2CCN(CCCO)CC2)no1 [CBK084197] | 89.6
Cc1cc(COc2nccnc2N2CCN(CCCn3c(=O)[nH]c4ccccc43)CC2)no1 [CBK084199] | 107
COc1ccc(CCN2CCN(c3nccnc3OCc3cc(C)on3)CC2)cc1OC [CBK084207] | 105
COc1nccnc1N1CCN(Cc2ccc(Cl)c(Cl)c2)CC1 [CBK084209] | 92.1
COc1nccnc1N1CCN(Cc2ccccc2)CC1 [CBK084210] | 90
COc1nccnc1N1CCN(Cc2cccnc2)CC1 [CBK084213] | 91.2
COc1nccnc1N1CCN(Cc2ccc([N+](=O)[O-])cc2)CC1 [CBK084217] | 103

Structure (SMILES) | viability at 28.5 h, 10 µM [%]
COc1nccnc1N1CCN(CC(=O)Nc2c(C)cccc2C)CC1 [CBK084220] | 89.1
COc1nccnc1N1CCN(CCCC#N)CC1 [CBK084225] | 86.9
COc1nccnc1N1CCN(CCSC)CC1 [CBK084227] | 90.2
COc1nccnc1N1CCN(CCc2ccccc2)CC1 [CBK084228] | 102
COc1nccnc1N1CCN(CCOc2ccccc2)CC1 [CBK084230] | 94.1
COc1nccnc1N1CCN(CCc2c[nH]c3ccccc23)CC1 [CBK084231] | 89.2
COc1nccnc1OC1CCN(Cc2ccccc2)CC1 [CBK084238] | 103
COc1nccnc1OC1CCN(Cc2ccc(Cl)cc2)CC1 [CBK084240] | 98.7
COc1nccnc1OC1CCN(Cc2ccc([N+](=O)[O-])cc2)CC1 [CBK084245] | 105
COc1nccnc1OC1CCN(Cc2ccccc2-c2ccccc2)CC1 [CBK084246] | 87.7
COc1nccnc1OC1CCN(CC(=O)Nc2c(C)cccc2C)CC1 [CBK084249] | 96.1
COc1nccnc1OC1CCN(CCCC#N)CC1 [CBK084255] | 90
COc1nccnc1OC1CCN(CCOc2ccccc2)CC1 [CBK084260] | 94.4
COc1nccnc1OC1CCN(CCc2c[nH]c3ccccc23)CC1 [CBK084261] | 93.6
COc1nccnc1OC1CCN(CC2CCCCC2)CC1 [CBK084263] | 96.2
CS(=O)(=O)Nc1nccnc1N1CCN(Cc2ccccc2)CC1 [CBK084268] | 96.5
CC(C)c1ccc(CN2CCN(c3nccnc3NS(C)(=O)=O)CC2)cc1 [CBK084271] | 91
COc1ccc(CN2CCN(c3nccnc3NS(C)(=O)=O)CC2)cc1 [CBK084273] | 88.7
CS(=O)(=O)Nc1nccnc1OC1CCN(CC2CCCCC2)CC1 [CBK084284] | 89.9
COc1ccc(CCN2CCC(Oc3nccnc3NS(C)(=O)=O)CC2)cc1OC [CBK084285] | 103
CS(=O)(=O)Nc1nccnc1OC1CCN(CCc2ccccn2)CC1 [CBK084286] | 109
O=C1CCC(=O)N1CCOc1nccnc1N1CCN(Cc2ccccc2)CC1 [CBK084288] | 87.9
O=C1CCC(=O)N1CCOc1nccnc1N1CCN(Cc2ccccc2F)CC1 [CBK084289] | 97.8

Structure (SMILES) | viability at 28.5 h, 10 µM [%]
O=C1CCC(=O)N1CCOc1nccnc1N1CCN(Cc2ccc(Cl)cc2)CC1 [CBK084290] | 96.1
N#CCCCN1CCN(c2nccnc2OCCN2C(=O)CCC2=O)CC1 [CBK084299] | 102
O=C1CCC(=O)N1CCOc1nccnc1N1CCN(CCc2ccccc2)CC1 [CBK084302] | 99.4
O=C1CCC(=O)N1CCOc1nccnc1N1CCN(CCc2c[nH]c3ccccc23)CC1 [CBK084304] | 95.5
O=C1CCC(=O)N1CCOc1nccnc1N1CCN(CC2CC2)CC1 [CBK084305] | 93.9
O=C1CCC(=O)N1CCOc1nccnc1N1CCN(CC2CCCCC2)CC1 [CBK084306] | 88.9
O=C1CCC(=O)N1CCOc1nccnc1N1CCN(CCc2ccc3ccccc3c2)CC1 [CBK084307] | 96.4
O=C1CCC(=O)N1CCOc1nccnc1N1CCN(CCc2ccccn2)CC1 [CBK084309] | 109
Nc1ccc(-c2ccccc2)c2ccccc12 [CBK084312] | 97.1
Nc1ccc(-c2cc(F)cc(F)c2)c2ccccc12 [CBK084314] | 93.2
COc1cc(F)ccc1-c1ccc(N)c2ccccc12 [CBK084319] | 103
Nc1ccc(-c2cccc(C(F)(F)F)c2)c2ccccc12 [CBK084324] | 80
Nc1ccc(-c2ccc3c(c2)OCCCO3)c2ccccc12 [CBK084325] | 87.9
CS(=O)(=O)c1ccc(-c2ccc(N)c3ccccc23)cc1 [CBK084326] | 95.4
COc1cc(-c2ccc(N)c3ccccc23)cc(OC)c1OC [CBK084332] | 83.5
O=C1CCC(=O)N1CCOc1nccnc1OC1CCN(Cc2ccc(C(F)(F)F)cc2)CC1 [CBK084341] | 96
N#CCCCN1CCC(Oc2nccnc2OCCN2C(=O)CCC2=O)CC1 [CBK084349] | 99.4
O=C1CCC(=O)N1CCOc1nccnc1OC1CCN(CCCn2c(=O)[nH]c3ccccc32)CC1 [CBK084350] | 90.2
CSCCN1CCC(Oc2nccnc2OCCN2C(=O)CCC2=O)CC1 [CBK084351] | 100
O=C1CCC(=O)N1CCOc1nccnc1OC1CCN(CCc2c[nH]c3ccccc23)CC1 [CBK084355] | 94.6
O=C1CCC(=O)N1CCOc1nccnc1OC1CCN(CC2CCCCC2)CC1 [CBK084357] | 105
